Test results published in ChEMBL document CHEMBL2380247, “Synthesis and biological evaluation of novel aliphatic amido-quaternary ammonium salts for anticancer chemotherapy: part II” (2013).
Calls of active or inactive are those of the source. The calls are words filed in the database; no cut-off is given here.

Key:
NUGC-3 [1] = test: Antiproliferative activity against human NUGC3 cells at 0.3 uM by SRB assay; format: functional
NUGC-3 [2] = test: Antiproliferative activity against human NUGC3 cells at 0.1 uM by SRB assay; format: functional
NUGC-3 [3] = test: Antiproliferative activity against human NUGC3 cells at 1 uM by SRB assay; format: functional
NUGC-3 [4] = test: Antiproliferative activity against human NUGC3 cells at 10 uM by SRB assay; format: functional
NUGC-3 [5] = test: Antiproliferative activity against human NUGC3 cells at 3 uM by SRB assay; format: functional
MDA-MB-231 [6] = test: Antiproliferative activity against human MDA-MB-231 cells at 0.1 uM by SRB assay; format: functional
MDA-MB-231 [7] = test: Antiproliferative activity against human MDA-MB-231 cells at 0.3 uM by SRB assay; format: functional
MDA-MB-231 [8] = test: Antiproliferative activity against human MDA-MB-231 cells at 1 uM by SRB assay; format: functional
MDA-MB-231 [9] = test: Antiproliferative activity against human MDA-MB-231 cells at 10 uM by SRB assay; format: functional
MDA-MB-231 [10] = test: Antiproliferative activity against human MDA-MB-231 cells at 3 uM by SRB assay; format: functional
ACHN [11] = test: Antiproliferative activity against human ACHN cells at 0.1 uM by SRB assay; format: functional
ACHN [12] = test: Antiproliferative activity against human ACHN cells at 1 uM by SRB assay; format: functional
ACHN [13] = test: Antiproliferative activity against human ACHN cells at 0.3 uM by SRB assay; format: functional
ACHN [14] = test: Antiproliferative activity against human ACHN cells at 3 uM by SRB assay; format: functional
ACHN [15] = test: Antiproliferative activity against human ACHN cells at 10 uM by SRB assay; format: functional
NCI-H23 [16] = test: Antiproliferative activity against human NCI-H23 cells at 0.3 uM by SRB assay; format: functional
NCI-H23 [17] = test: Antiproliferative activity against human NCI-H23 cells at 0.1 uM by SRB assay; format: functional
NCI-H23 [18] = test: Antiproliferative activity against human NCI-H23 cells at 3 uM by SRB assay; format: functional
NCI-H23 [19] = test: Antiproliferative activity against human NCI-H23 cells at 1 uM by SRB assay; format: functional
NCI-H23 [20] = test: Antiproliferative activity against human NCI-H23 cells at 10 uM by SRB assay; format: functional
PC-3 [21] = test: Antiproliferative activity against human PC3 cells at 0.1 uM by SRB assay; format: functional
PC-3 [22] = test: Antiproliferative activity against human PC3 cells at 1 uM by SRB assay; format: functional
PC-3 [23] = test: Antiproliferative activity against human PC3 cells at 0.3 uM by SRB assay; format: functional
PC-3 [24] = test: Antiproliferative activity against human PC3 cells at 3 uM by SRB assay; format: functional
HCT-15 [25] = test: Antiproliferative activity against human HCT15 cells at 0.1 uM by SRB assay; format: functional
PC-3 [26] = test: Antiproliferative activity against human PC3 cells at 10 uM by SRB assay; format: functional
HCT-15 [27] = test: Antiproliferative activity against human HCT15 cells at 0.3 uM by SRB assay; format: functional
HCT-15 [28] = test: Antiproliferative activity against human HCT15 cells at 3 uM by SRB assay; format: functional
HCT-15 [29] = test: Antiproliferative activity against human HCT15 cells at 1 uM by SRB assay; format: functional
HCT-15 [30] = test: Antiproliferative activity against human HCT15 cells at 10 uM by SRB assay; format: functional
[31] = target: Rho-related GTP-binding protein RhoB (Homo sapiens) (UniProt P62745); test: Inhibition of RhoB transactivation in human HeLa cells by luciferase reporter assay; format: cell-based
Chain of Rho-related GTP-binding protein RhoB (Homo sapiens) (P62745 whole entry): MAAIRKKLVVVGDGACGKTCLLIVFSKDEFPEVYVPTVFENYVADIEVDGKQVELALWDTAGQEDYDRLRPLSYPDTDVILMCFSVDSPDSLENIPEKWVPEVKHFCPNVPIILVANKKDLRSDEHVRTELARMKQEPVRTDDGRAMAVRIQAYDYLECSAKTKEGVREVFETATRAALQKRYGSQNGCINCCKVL

[32] = target: Rho-related GTP-binding protein RhoB (Homo sapiens) (UniProt P62745); test: Transactivation of RhoB in human HeLa cells by luciferase reporter assay; format: cell-based
NCI-H23 [33] = test: Antiproliferative activity against human NCI-H23 cells by SRB assay; format: functional
NUGC-3 [34] = test: Antiproliferative activity against human NUGC3 cells by SRB assay; format: functional
HCT-15 [35] = test: Antiproliferative activity against human HCT15 cells by SRB assay; format: functional
ACHN [36] = test: Antiproliferative activity against human ACHN cells by SRB assay; format: functional
MDA-MB-231 [37] = test: Antiproliferative activity against human MDA-MB-231 cells by SRB assay; format: functional
PC-3 [38] = test: Antiproliferative activity against human PC3 cells by SRB assay; format: functional

Compound	growth, % of control at 0.3 µM (NUGC-3 [1]) [%]	growth, % of control at 0.1 µM (NUGC-3 [2]) [%]	growth, % of control at 1 µM (NUGC-3 [3]) [%]	growth, % of control at 10 µM (NUGC-3 [4]) [%]	growth, % of control at 3 µM (NUGC-3 [5]) [%]	growth, % of control at 0.1 µM (MDA-MB-231 [6]) [%]	growth, % of control at 0.3 µM (MDA-MB-231 [7]) [%]	growth, % of control at 1 µM (MDA-MB-231 [8]) [%]	growth, % of control at 10 µM (MDA-MB-231 [9]) [%]	growth, % of control at 3 µM (MDA-MB-231 [10]) [%]	growth, % of control at 0.1 µM (ACHN [11]) [%]	growth, % of control at 1 µM (ACHN [12]) [%]	growth, % of control at 0.3 µM (ACHN [13]) [%]	growth, % of control at 3 µM (ACHN [14]) [%]	growth, % of control at 10 µM (ACHN [15]) [%]	growth, % of control at 0.3 µM (NCI-H23 [16]) [%]	growth, % of control at 0.1 µM (NCI-H23 [17]) [%]	growth, % of control at 3 µM (NCI-H23 [18]) [%]	growth, % of control at 1 µM (NCI-H23 [19]) [%]	growth, % of control at 10 µM (NCI-H23 [20]) [%]	also measured
CCCCCCCCCCCCCCCCCC(=O)NCCC[N+](C)(C)C	93	98.4	63.8	15.3	37.7	96	98.1	92.5	29.9	59.9	99.2	85	101	64.3	42.8	103	102	56.5	90.7	5.43	growth, % of control at 0.1 µM (PC-3 [21]): 97.5%; growth, % of control at 1 µM (PC-3 [22]): 51.3%; growth, % of control at 0.3 µM (PC-3 [23]): 97.7%; growth, % of control at 3 µM (PC-3 [24]): 3.63%; growth, % of control at 0.1 µM (HCT-15 [25]): 90.7%; growth, % of control at 10 µM (PC-3 [26]): -14.7%; growth, % of control at 0.3 µM (HCT-15 [27]): 86.5%; growth, % of control at 3 µM (HCT-15 [28]): 30.8%; growth, % of control at 1 µM (HCT-15 [29]): 64.3%; growth, % of control at 10 µM (HCT-15 [30]): 11.2%; inhibition [31]: Active; Activity [32]: Active; GI50 (NCI-H23 [33]): 1680 nM; GI50 (NUGC-3 [34]): 970 nM; GI50 (HCT-15 [35]): 790 nM; GI50 (ACHN [36]): 3400 nM; GI50 (MDA-MB-231 [37]): 2410 nM; GI50 (PC-3 [38]): 520 nM
CCCCCCCCCCCCCCCCCC(=O)NCC(C)(C)C[N+](C)(C)C	72.3	79.4	46.7	26.4	17.7	78.5	78.8	70.9	26.8	41.6	86.5	71.3	79.6	43.5	45.8	95.3	97.1	47.4	86.3	21.5	growth, % of control at 0.1 µM (PC-3 [21]): 84.1%; growth, % of control at 1 µM (PC-3 [22]): 11.9%; growth, % of control at 0.3 µM (PC-3 [23]): 76.1%; growth, % of control at 3 µM (PC-3 [24]): -38.6%; growth, % of control at 0.1 µM (HCT-15 [25]): 97.1%; growth, % of control at 10 µM (PC-3 [26]): -47%; growth, % of control at 0.3 µM (HCT-15 [27]): 91.8%; growth, % of control at 3 µM (HCT-15 [28]): 46%; growth, % of control at 1 µM (HCT-15 [29]): 81.1%; growth, % of control at 10 µM (HCT-15 [30]): 27.5%; Activity [32]: Active; GI50 (NCI-H23 [33]): 1710 nM; GI50 (NUGC-3 [34]): 450 nM; GI50 (HCT-15 [35]): 1730 nM; GI50 (ACHN [36]): 2300 nM; GI50 (MDA-MB-231 [37]): 1210 nM; GI50 (PC-3 [38]): 240 nM
CCCCCCCCCCCCCC(=O)NCCC[N+](C)(C)C	73.2	84.9	46.7	14.8	28.7	83.4	81.2	80.6	19.1	58.1	83.3	77.1	77.2	58.1	25.4	96.4	99.4	39.8	80.9	-15.6	growth, % of control at 0.1 µM (PC-3 [21]): 85.2%; growth, % of control at 1 µM (PC-3 [22]): 44.6%; growth, % of control at 0.3 µM (PC-3 [23]): 87.3%; growth, % of control at 3 µM (PC-3 [24]): -4.97%; growth, % of control at 0.1 µM (HCT-15 [25]): 83.5%; growth, % of control at 10 µM (PC-3 [26]): -22.8%; growth, % of control at 0.3 µM (HCT-15 [27]): 82.5%; growth, % of control at 3 µM (HCT-15 [28]): 33%; growth, % of control at 1 µM (HCT-15 [29]): 71.6%; growth, % of control at 10 µM (HCT-15 [30]): 14.7%; Activity [32]: Active; GI50 (NCI-H23 [33]): 1020 nM; GI50 (NUGC-3 [34]): 430 nM; GI50 (HCT-15 [35]): 790 nM; GI50 (ACHN [36]): 1560 nM; GI50 (MDA-MB-231 [37]): 1480 nM; GI50 (PC-3 [38]): 390 nM
